One series in a line: in vitro. The settings on record: CD-1, mouse, liver microsomes, pH 7.4. On the technique in general: Liver microsomes are vesicles of endoplasmic reticulum, rich in cytochrome P450 enzymes.
Series [1] is described as follows: Metabolic stability in liver microsomes.
Series [2] is described as follows: Non-enzymatic stability under cellular assay conditions (HPLC). Type of series: physicochemical. The settings on record: compound remaining, assay medium DMEM, 37 °C. The protocol:
An important aspect in the development of PROTACs is testing chemical stability. On the one hand, we tested all PROTACs produced for their stability under cellular assay conditions. For this purpose, 10 µM solutions of the PROTACs and reference inhibitor were incubated for 72 h at 37 °C with the assay medium DMEM. The remaining amount of the compounds was determined by HPLC after 6, 12, 24, 48 and 72 h. The results of the stability studies are shown in Table S2 (Supplementary Information).
The developed compounds were diluted in the assay media consisting of a mixture of DMEM (50%), DMSO (10%) and acetonitrile (40%) at pH 7.4 and incubated at 37 °C for 72 h. The quantity of the compounds was measured after 6, 12, 24, 48, and 72 h by HPLC using an XTerra RP18 column ([…], 3.9 mm × 100 mm) from the manufacturer Waters (Milford, MA, USA) and two LC-10AD pumps, an SPD-M10AVP PDA detector, and an SIL-HT autosampler, all from the manufacturer Shimadzu (Kyoto, Japan).

Series [3] deals with T1, FLT3-ITD (Homo sapiens, UniProt P36888, INS600HVDFREYEYD).
T1 sequence (P36888 with tags, fused parts or gaps INS600HVDFREYEYD): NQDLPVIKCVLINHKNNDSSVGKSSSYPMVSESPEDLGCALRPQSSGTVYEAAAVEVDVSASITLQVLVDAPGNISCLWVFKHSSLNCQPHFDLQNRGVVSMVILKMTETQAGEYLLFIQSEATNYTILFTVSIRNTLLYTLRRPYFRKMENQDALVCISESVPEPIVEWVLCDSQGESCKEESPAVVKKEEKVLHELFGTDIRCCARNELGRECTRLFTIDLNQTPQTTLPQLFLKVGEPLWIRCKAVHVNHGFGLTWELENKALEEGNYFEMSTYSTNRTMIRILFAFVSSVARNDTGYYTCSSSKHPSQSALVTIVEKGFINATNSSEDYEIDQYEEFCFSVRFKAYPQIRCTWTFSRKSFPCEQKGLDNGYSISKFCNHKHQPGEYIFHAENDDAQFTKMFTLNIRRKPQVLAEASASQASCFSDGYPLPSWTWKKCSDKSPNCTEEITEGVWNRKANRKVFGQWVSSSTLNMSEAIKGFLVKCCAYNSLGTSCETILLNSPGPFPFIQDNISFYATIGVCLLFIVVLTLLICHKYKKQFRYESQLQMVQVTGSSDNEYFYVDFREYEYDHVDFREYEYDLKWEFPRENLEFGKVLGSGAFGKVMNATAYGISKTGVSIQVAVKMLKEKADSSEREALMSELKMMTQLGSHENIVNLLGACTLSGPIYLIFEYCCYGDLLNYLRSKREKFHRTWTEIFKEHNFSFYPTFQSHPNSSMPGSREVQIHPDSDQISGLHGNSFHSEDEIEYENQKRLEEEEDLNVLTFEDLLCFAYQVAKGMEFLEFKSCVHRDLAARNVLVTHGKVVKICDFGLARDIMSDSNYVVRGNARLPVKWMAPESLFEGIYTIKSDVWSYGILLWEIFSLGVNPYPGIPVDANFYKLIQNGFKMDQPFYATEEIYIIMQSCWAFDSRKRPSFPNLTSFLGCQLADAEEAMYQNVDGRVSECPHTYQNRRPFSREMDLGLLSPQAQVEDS
Kind of series: FLT3-ITD degradation, immunoblot in MV4-11 cells. The conditions noted are these: for inhibition at 0.05 µM: MV4-11, 24 h, read-out: % FLT3-ITD Degradation at 50 nM. In general terms: A western blot detects proteins with antibodies after separation by electrophoresis.

The test system of series [4] is FLT3-ITD. Kind of series: KINOMEscan binding assay. As to the method:
Binding to FLT3-ITD was determined using the KINOMEscan^TM assay (Eurofins DiscoverX Corporation, San Diego, CA, USA)
Kinase-tagged T7 phage strains were prepared in an E. coli host derived from the BL21 strain. E. coli were grown to log-phase and infected with T7 phage and incubated with shaking at 32 °C until lysis. The lysates were centrifuged and filtered to remove cell debris. The remaining kinases were produced in HEK-293 cells and subsequently tagged with DNA for qPCR detection. […] The liganded beads were blocked with excess biotin and washed with blocking buffer (SeaBlock (Pierce), 1% BSA, 0.05% Tween 20, 1 mM DTT) to remove unbound ligand and to reduce non-specific binding. […] The compounds were then diluted directly into the assays such that the final concentration of DMSO was 0.9%. All reactions performed in polypropylene 384-well plate. Each was a final volume of 0.02 mL. […] The kinase concentration in the eluates was measured by qPCR.

What is called share remaining is what is left of the initial amount, in per cent. Low readings indicate more turnover, high ones less turnover. On to `O=C(O)Cc1ccccc1Nc1c(Cl)cccc1Cl` [Diclofenac, Diclofenac sodium, reference compound], for which, in “in vitro”, the fraction remaining at 10 min, 25 µM stood at 94.7 ± 1.7%; the amount remaining at 0.5 h, 25 µM is 78%; the fraction remaining at 1 h, 25 µM stood at 73%; the fraction remaining at 2 h, 25 µM came to 59%. Besides, the “0 min—Compound Remaining %” value in series [1] (mouse (CD-1) liver microsomes, 25 μM, 0 min) worked out at 100%. The “30 min—Compound Remaining %” value in series [1] (mouse (CD-1) liver microsomes, 25 μM, 30 min) is 79.0 ± 1.3%. Besides, the “120 min—Compound Remaining %” value in series [1] (mouse (CD-1) liver microsomes, 25 μM, 120 min) is recorded as 60.8 ± 2.2%. The “0 min - compound remaining %” value in series [1] (single runs A and B (Table S3), 0 min) amounted to 100%. Besides, the “10 min - compound remaining %” value in series [1] (single runs A and B (Table S3), 10 min) was found to be 96%. Also, the “30 min - compound remaining %” value in series [1] (single runs A and B (Table S3), 30 min, listed as Diclofenac_A) turned out to be 80%.
Consider `Cc1ncsc1-c1ccc([C@H](C)NC(=O)[C@@H]2C[C@@H](O)CN2C(=O)[C@@H](NC(=O)CCCCCCCNC(=O)c2cc(Oc3ccc(NC(=O)Nc4cccc(C(F)(F)F)c4)cc3)ccn2)C(C)(C)C)cc1` [MA42, N-(8-(((S)-1-((2S,4R)-4-Hydroxy-2-(((S)-1-(4-(4-methylthiazol-5-yl)phenyl)ethyl)carbamoyl)-pyrrolidin-1-yl)-3,3-dimethyl-1-oxobutan-2-yl)amino)-8-oxooctyl)-4-(4-(3-(3-(trifluoromethyl)phenyl)ureido)phenoxy)picolinamide], for which, in series [2], the “0 h - %” value was found to be 100%, the 6 h- % was found to be 99.7%, the 12 h- % is 100.0% and the 24 h- % was found to be 100.2%. In addition, in series [2], the 48 h- % stood at 100.8% and the 72 h- % is 101.0%. Moreover, at FLT3-ITD [3], the inhibition at 0.05 µM was 30%. Moreover, on FLT3-ITD [3] (MV4-11 cells, 50 nM, 24 h), the “FLT3-ITD degradation” value is “no significant degradation”.
Take `Cc1ncsc1-c1ccc([C@H](C)NC(=O)[C@@H]2C[C@@H](O)CN2C(=O)[C@@H](NC(=O)CCCCCNC(=O)c2cc(Oc3ccc(NC(=O)Nc4cccc(C(F)(F)F)c4)cc3)ccn2)C(C)(C)C)cc1` [MA43, N-(6-(((S)-1-((2S,4R)-4-Hydroxy-2-(((S)-1-(4-(4-methylthiazol-5-yl)phenyl)ethyl)carbamoyl)-pyrrolidin-1-yl)-3,3-dimethyl-1-oxobutan-2-yl)amino)-6-oxohexyl)-4-(4-(3-(3-(trifluoromethyl)phenyl)ureido)phenoxy)picolinamide]: in series [2], the “0 h - %” value is given as 100%, the 6 h- % was 100.1%, the 12 h- % was determined as 100.3% and the 24 h- % amounted to 100.5%. In series [2], this compound registered a 48 h- % of 101.0% and a 72 h- % of 101.2%. In addition, the inhibition at 0.05 µM on FLT3-ITD [3] worked out at 20%. Besides, at FLT3-ITD [3] (MV4-11 cells, 50 nM, 24 h), the “FLT3-ITD degradation” value is given as “no significant degradation”.
For `Cc1ncsc1-c1ccc([C@H](C)NC(=O)[C@@H]2C[C@@H](O)CN2C(=O)[C@@H](NC(=O)CCCCCCCNC(=O)c2cc(Oc3ccc(NC(=O)Nc4cc(C(C)(C)C)on4)cc3)ccn2)C(C)(C)C)cc1` [MA73, 4-(4-(3-(5-(tert-Butyl)isoxazol-3-yl)ureido)phenoxy)-N-(8-(((S)-1-((2S,4R)-4-hydroxy-2-(((S)-1-(4-(4-methylthiazol-5-yl)phenyl)ethyl)carbamoyl)pyrrolidin-1-yl)-3,3-dimethyl-1-oxobutan-2-yl)amino)-8-oxooctyl)picolinamide], the “% FLT3-ITD Binding at 1 µM” value in the series on FLT3-ITD [4] is 84 ± 1%. In addition, in series [2], the “0 h - %” value was 100%, the 6 h- % was determined as 101.2%, the 12 h- % worked out at 101.3% and the 24 h- % was 102.2%. Also, in series [2], the 48 h- % was found to be 103.3% and the 72 h- % came out at 106.1%. Besides, at FLT3-ITD [3], the inhibition at 0.05 µM is 80%.
As to `Cc1ncsc1-c1ccc([C@H](C)NC(=O)[C@@H]2C[C@@H](O)CN2C(=O)[C@@H](NC(=O)CCOCCOCCNC(=O)c2cc(Oc3ccc(NC(=O)Nc4cc(C(C)(C)C)on4)cc3)ccn2)C(C)(C)C)cc1` [MA74, 4-(4-(3-(5-(tert-Butyl)isoxazol-3-yl)ureido)phenoxy)-N-(2-(2-(3-(((S)-1-((2S,4R)-4-hydroxy-2-(((S)-1-(4-(4-methylthiazol-5-yl)phenyl)ethyl)carbamoyl)pyrrolidin-1-yl)-3,3-dimethyl-1-oxobutan-2-yl)amino)-3-oxopropoxy)ethoxy)ethyl)picolinamide], the “% FLT3-ITD Binding at 1 µM” value in the series on FLT3-ITD [4] stood at 89 ± 2%. Besides, in series [2], the “0 h - %” value is 100%, the 6 h- % worked out at 101.4%, the 12 h- % is 101.4% and the 24 h- % is 101.8%. Besides, in series [2], the 48 h- % is 102.6% and the 72 h- % is on record as 103.1%. For the same compound, the inhibition at 0.05 µM at FLT3-ITD [3] was determined as 90%.
`Cc1ncsc1-c1ccc([C@H](C)NC(=O)[C@@H]2C[C@@H](O)CN2C(=O)[C@@H](NC(=O)CCCCCCNC(=O)c2cc(Oc3ccc(NC(=O)Nc4cc(C(C)(C)C)on4)cc3)ccn2)C(C)(C)C)cc1` [MA77, 4-(4-(3-(5-(tert-Butyl)isoxazol-3-yl)ureido)phenoxy)-N-(7-(((S)-1-((2S,4R)-4-hydroxy-2-(((S)-1-(4-(4-methylthiazol-5-yl)phenyl)ethyl)carbamoyl)pyrrolidin-1-yl)-3,3-dimethyl-1-oxobutan-2-yl)amino)-7-oxoheptyl)picolinamide]: the “% FLT3-ITD Binding at 1 µM” value with FLT3-ITD [4] came to 89 ± 2%. In addition, in series [2], the “0 h - %” value was found to be 100%, the 6 h- % is 99.6%, the 12 h- % stood at 99.6% and the 24 h- % was 99.9%. Besides, in series [2], the 48 h- % is 100.5% and the 72 h- % worked out at 100.7%. The inhibition at 0.05 µM at FLT3-ITD [3] stood at 80%.
For `Cc1ncsc1-c1ccc([C@H](C)NC(=O)[C@H]2C[C@H](O)CN2C(=O)[C@@H](NC(=O)[C@H]2CC[C@H](C(=O)N3CCC(CCNC(=O)c4cc(Oc5ccc(NC(=O)Nc6cc(C(C)(C)C)on6)cc5)ccn4)CC3)CC2)C(C)(C)C)cc1` [MA224, 4-(4-(3-(5-(tert-Butyl)isoxazol-3-yl)ureido)phenoxy)-N-(2-(1-(trans-4-(((S)-1-((2R,4S)-4-hydroxy-2-(((S)-1-(4-(4-methylthiazol-5-yl)phenyl)ethyl)carbamoyl)pyrrolidin-1-yl)-3,3-dimethyl-1-oxobutan-2-yl)carbamoyl)cyclohexanecarbonyl)piperidin-4-yl)ethyl)picolinamide], the “% FLT3-ITD Degradation at 50 nM” value at FLT3-ITD [3] (MV4-11 cells, 50 nM, 24 h) is “No effect”.
As for `NS(=O)(=O)OC[C@@H]1C[C@@H](n2ccc3c(N[C@H]4CCc5ccccc54)ncnc32)C[C@@H]1O` [MLN4924, reference compound], the “rescue of MA191-mediated degradation” value on FLT3-ITD [3] (50 nM MA191 ± 3 µM MLN4924, 6 h, MV4-11 and MOLM-13 cells) is listed as “prevented the MA191-mediated degradation of FLT3-ITD as well as MAPK14”.

The values are drawn from PMC13210772, “Dual FLT3/MAPK14 Proteolysis-Targeting Chimera (PROTAC) Induces Potent Acute Myeloid Leukemia Cell Death” (Pharmaceuticals, 2026).
